The text below walks through data of patent US7550625B2, “Esters of florfenicol” (priority 2007, dated 2009).

The subject of series [1] is various bacteria. To be noted: cited from earlier work.
The test system of series [2] is variety of microorganisms. As to conditions: cited from earlier work.
Series [3] in a line: Serum concentration of florfenicol after subcutaneous injection to an animal. Format: in vivo. The source says: A lower Cmax advantageously avoids undesirable side-effects.
The conditions of series [4]: added to serum in vitro; compared with florfenicol butyrate.

For the molecule `CS(=O)(=O)c1ccc([C@@H](O)[C@@H](CF)NC(=O)C(Cl)Cl)cc1` [florfenicol], the “typical minimum inhibitory concentrations (MICs)” value in series [1] is 0.3 to 1 µg/mL. In series [2] (Citrobacter, Proteus mirabilis, Proteus sp., Shigella, Salmonella, Providencia, Bacteroides, Staphylococcos aureus, Enterococci, Pasteurlla haemolytica, Pasteurella multocida, Haemophilus somnus, Haemophilus influenza), the activity against microorganisms entry is “active”. The “resistance of microorganisms to the substance” value in series [2] (Serratia marcescens, Pseudomonas aeruginosa, Acinetobacter) is given as “resistant”.

For the molecule `COCCOCC(=O)O[C@H](c1ccc(S(C)(=O)=O)cc1)[C@@H](CF)NC(=O)C(Cl)Cl` [formula (Ia)], in series [3] (administered to an animal, compared with florfenicol), the “Cmax for the serum concentration of florfenicol” value was “lower than the Cmax for the serum concentration of florfenicol when florfenicol is administered”. Also, the “time period for which serum concentration of florfenicol is therapeutically effective” value in series [3] (subcutaneous injection, compared with florfenicol or florfenicol butyrate) is listed as “longer”. Moreover, the “rate of hydrolysis in serum” value in series [4] is on record as “hydrolyzed faster than florfenicol butyrate”.

With `CN(C)CC(=O)OC(c1ccc(S(C)(=O)=O)cc1)C(CF)NC(=O)C(Cl)Cl` (stereo not shown) [formula (Ib)], the “pharmacokinetic and pharmacodynamic profile” value in series [3] (when administered to an animal, expected, compared with florfenicol and other florfenicol esters) was “superior pharmacokinetic and pharmacodynamic profile”.
